# Data published in PMC10883716, “Conformational dynamics of adenylate kinase in crystals” (Structural Dynamics, 2024).
# Columns and labels:
# [1] = target: T1, AKign (adenylate kinase from Methanotorrus igneus) (Methanotorris igneus, UniProt P43408); test: X-ray crystallography, […] A; format: binding; details: 4 mM Ap5A, 17% PEG 3350, 250 mM sodium malonate, 20 °C; one per protomer, spans AMP and ATP sites
# T1 construct: gene adkA; full length, residues 1-192; synthetic gene in pET21a, C-terminal His6 tag kept (disordered, unbuilt); E. coli BL21(DE3); homotrimer
# T1 sequence (P43408 whole entry, the tested form may be a part): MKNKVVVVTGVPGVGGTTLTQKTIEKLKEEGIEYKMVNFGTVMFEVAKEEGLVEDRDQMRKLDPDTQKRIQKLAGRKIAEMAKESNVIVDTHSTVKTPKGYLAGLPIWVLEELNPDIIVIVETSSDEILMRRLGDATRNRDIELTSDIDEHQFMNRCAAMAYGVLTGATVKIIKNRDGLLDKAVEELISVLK
# [2] = target: T1, AKign (adenylate kinase from Methanotorrus igneus); test: X-ray crystallography, […] A; format: binding; details: 4 mM AMP, 8% PEG 8000, 100 mM magnesium acetate, sodium acetate pH 4.5, 20 °C; two per protomer, in AMP and ATP sites
SMILES,"X-ray crystallography, 2.25 A [1]","X-ray crystallography, 2.40 A [2]"
"Nc1ncnc2c1ncn2[C@@H]1O[C@H](COP(=O)(O)OP(=O)(O)OP(=O)(O)OP(=O)(O)OP(=O)(O)OC[C@H]2O[C@@H](n3cnc4c(N)ncnc43)[C@H](O)[C@@H]2O)[C@@H](O)[C@H]1O [Ap5A, P^1,P^5-di(adenosine 5′)-pentaphosphate]","We also solved the AKign structure with the bound inhibitor, Ap5A.",–
Nc1ncnc2c1ncn2[C@@H]1O[C@H](COP(=O)(O)O)[C@@H](O)[C@H]1O [AMP],–,"AMP-bound AKign structure, which comprises two bound AMP molecules per AKign protomer"
